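Following 48 hours of exposure in 96-well plates, responses at five concentrations were used to interpolate endpoints linearly. The concentration for 50% growth inhibition is given as GI50. TGI: total growth inhibition.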
System: MDA-MB-468 breast
Assay: NCI tumour cell line growth inhibition, 48 h

Compound | GI50 [µM] | TGI [µM]
Cc1cc2cc3cc(C)c(N(C)C)cc3[n+](C)c2cc1N(C)C | 0.95 | 13.5
CN(c1cc2ncc(=O)[nH]c2cc1NC(N)=NCc1ccc(Cl)cc1)C1CCCCC1 | 1.23 | 4.42
CCOc1ccc(-c2cnnn2-c2nonc2-n2cccc2)cc1 | 0.12 | 0.495
CC(C)c1c(C(=O)Nc2ccccc2)c(-c2ccccc2)c(-c2ccc(F)cc2)n1CC[C@@H]1CC=CC(=O)O1 | 1.83 | 3.82
COc1cc2cc(C(=O)CCC(=O)O)sc2cc1OC | > 100 | > 100
Cc1ccc2c(c1)c1nc3cc(C)c(C)cc3nc1n2CCN(C)C | 1.39 | 3.54
COc1cc(-c2nc3sccn3c2-c2ccnc(NCCNS(=O)(=O)c3ccc(Cl)cc3)n2)ccc1F | 2.48 | > 100
CCN(CC)c1ccc(/C=C2/C[N+](C)(C)C/C(=C/c3ccc(N(CC)CC)cc3)C2=O)cc1 | 1.32 | 3.57
N#C/C(=N\Nc1ccc(Cl)cc1)C(=O)Nc1cc(-c2ccccc2)nn1-c1ccccc1 | 1.84 | 5.93
COc1cc(C(=O)N2N=C(c3ccc(S(C)(=O)=O)cc3)CC2c2ccco2)cc(OC)c1OC (stereo not given) | 2.49 | > 26
Cn1cc(C2=C(c3cccc(N)c3)C(=O)NC2=O)c2ccccc21 | > 18.2 | > 25
O=C1C2C(C(=O)[N]1[Hg][c]1cccs1)C1(Cl)C(Cl)=C(Cl)C2(Cl)C1(Cl)Cl (stereo not given) | 1.25 | 2.7
N/C(=C\C(=O)n1nc(-c2ccccc2)cc1N)c1ccccc1 | 5.54 | 56.3
CC/C(=C(/c1ccc(OCCN(C)C)cc1)c1ccc(OC(=O)CCC(=O)c2c(C)[nH]c(/C=C3\N=C(c4ccc[nH]4)C=C3OC)c2C)cc1)c1ccccc1 | 2.9 | 14
CCN1/C(=C/C=C/c2n(-c3ccccc3)c3ccc(-c4nc5ccccc5s4)cc3[n+]2CC)N(c2ccccc2)c2ccc(-c3nc4ccccc4s3)cc21 | 0.283 | > 50
Clc1ccc(/C=C/c2cc(N3CCOCC3)c3cc(Cl)c(Cl)cc3n2)cc1 | > 100 | > 100
Oc1ccc(CN2CCC(N3CCOCC3)CC2)c2cccnc12 | 22.6 | 60.6
COc1ccc(C2CC(c3cccc(Nc4ccncc4)c3)=NN2c2ccc(Cl)cc2)cc1 (stereo not given) | 1.45 | 2.95
Clc1cc2c(cc1Cl)Oc1cc(Cl)c(Cl)cc1O2 | > 0.625 | > 0.625
O=c1ccc(N=Nc2ccc([N+](=O)[O-])cc2)ccc1O | 3.8 | 81.2
Nc1ccccc1-c1ccc([N+](=O)[O-])cc1 | 13.4 | > 100
c1ccc(C2CC(c3cccc(Nc4ccncc4)c3)=NN2c2ccccc2)cc1 (stereo not given) | 1.49 | 3.02
Cc1cc(NCCCNc2ccnc3cc(Cl)ccc23)nc(N2CCN(C)CC2)n1 | 1.76 | 5.97

Compound | GI50 [µM] | TGI [µM]
CN(Cc1ccc(Cl)cc1)c1ccc(CO)c(Cl)c1 | 0.0657 | 0.219
CCOc1ccccc1NC(=O)c1cc2ccccc2cc1O | 2.38 | 7.18
CCCCCc1nc2c(c3c1CCCC3)CCCC2 | 4.13 | 18.1
Cc1ccc(NC(=O)Cc2ccc(/C=C/C(=O)c3ncc[nH]3)cc2)cc1 | 3.3 | 23.4
Oc1ccccc1/C=N/Nc1nc(N/N=C/c2ccccc2O)nc(N2CCOCC2)n1 | 4.11 | 35.9
O=c1c2c3c(sc2n2c(-c4cc(-c5ccccc5)no4)nnc2n1Cc1ccccc1)CCCC3 | 14.6 | 43.8
CCCc1cc(O)c2c3c(c(=O)oc2c1)CN(C)CC3 | 24.2 | 85.2
COc1cccc(C2C3=C(COC3=O)N(CCO)c3cc(OC)ccc32)c1 (stereo not given) | 0.0365 | 1.26
N#Cc1cccc(OCc2nc(N)nc(N)c2-c2ccc(Cl)c(Cl)c2)c1 | 3.08 | > 100
CC(=O)N1N=C(c2ccc(Nc3nc(Nc4ccc(Cl)cc4)nc(Nc4ccc(Cl)cc4)n3)cc2)CC1c1ccc([N+](=O)[O-])cc1 (stereo not given) | 3.08 | > 100
CCCCCCc1cc2cc(-c3nc4ccccc4[nH]3)c(=Nc3ccccc3C)oc2cc1O | 1.82 | 3.74
O=S(=O)(Cc1ccc(Cl)cc1Cl)c1ccc(Cl)cc1 | 0.265 | 2.19
C/C=C/C/C=C/CCC(=O)[C@H]1O[C@H]1C(N)=O | 11.7 | 25.9
O=C(CSc1nc2sc3c(c2c(=O)n1-c1ccc(Cl)cc1)CCCC3)NNC(=O)Nc1ccc(Cl)c(C(F)(F)F)c1 | 1.55 | 3.66
O=C(Nc1ccc(F)cc1)Nc1ccccc1CNc1nc(Nc2ccc(OCCN3CCCC3)cc2)ncc1Cl | 1.12 | 2.89
O=c1c2ccccc2c(Br)c(Br)c2ccccc12 | 2.74 | 9.55
CC(C)[C@H]1CC[C@H]2[C@@H](CC[C@H]3[C@](C)(CN)CCC[C@]23C)C1 | 8.83 | 23.5
CC(C)Nc1ccc(Nc2ccccc2)cc1 | 4.45 | 19.7
Cn1ccnc1C(=O)/C=C/c1ccc(C(=O)Nc2ccc(S(F)(F)(F)(F)F)cc2)cc1 | 0.423 | 13.8
CC(=O)Nc1ccc(/C=C/C(=O)c2ccccc2)cc1 | 11.7 | 26
N#Cc1ncc(-c2ccc(C(F)(F)F)cc2)c(NCc2cc(C(F)(F)F)cc(C(F)(F)F)c2)n1 | 2.56 | 7.38
Cn1cc(C2=C(c3cn(CCO)c4ccccc34)C(=O)NC2=O)c2ccccc21 | 2.52 | 10.8
